Measured values as given in US10875872B2, “Heteroaryl amide compounds as sting activators” (Incyte Corporation, priority 2018, dated 2020).

System: IRF3
Assay: IRF3 activation assay in THP-1 Dual cells (QUANTI-Blue reporter)
Format: cell-based
Conditions: Homo sapiens, THP1-Dual, 24 hours incubation, culture supernatant, absorbance at 620-655 nm
Description: THP-1 Dual Cells (Invivogen) were maintained in RPMI1640 medium with addition of 10% FBS, 100 μg/mL zeocin, 10 μg/mL blasticidin. Cells were added in a 96-well flat bottom assay plate at 100,000 per well in 100 μL complete RPMI medium. Test compounds were prepared by serial dilution in complete RPMI medium and 100 μL test compounds were transferred to each corresponding well. The assay plate was incubated at 37° C., 5% CO2 for 24 hours. After the overnight incubation, 20 μL of the culture supernatants were collected, followed by addition of 180 μL of QUANTI-Blue (Invivogen) to assess IRF3 activity. The amount of IRF3 activation was assessed by reading the absorbance at 620-655 nm with a microplate reader 2 hours later. The culture supernatant from the untreated THP-1 cells was used as the negative control. To determine the NF-κB activation, another 20 μL of culture supernatant were transferred to a 96-well white plate, followed by addition of 50 μL of Quanti-Lucim assay solution (Invivogen). The amount of NF-κB activation induced by the test compounds were determined by the luminescence above the untreated control. EC50 determination was performed by fitting the curve of percent control activity versus the log of the compound concentration using the GraphPad Prism 6.0 software.

| Compound | EC50 |
| --- | --- |
| CCn1nc(C)cc1C(=O)Nc1nc2cc(C(N)=O)cc(C)c2n1C/C=C/Cn1c(NC(=O)c2cc(C)nn2CC)nc2cc(C(N)=O)c3ccoc3c21 [Example 2, (E)-1-(4-(5-carbamoyl-2-(1-ethyl-3-methyl-1H-pyrazole-5-carboxamido)-7-methyl-1H-benzo[d]imidazol-1-yl)but-2-en-1-yl)-2-(1-ethyl-3-methyl-1H-pyrazole-5-carboxamido)-1H-benzofuro[6,7-d]imidazole-5-carboxamide] | < 100 nM |
| CCn1nc(C)cc1C(=O)Nc1nc2cc(C(N)=O)cc(C)c2n1C/C=C/Cn1c(NC(=O)c2cc(C)nn2CC)nc2cc(C(N)=O)c3c(c21)OCCO3 [Example 1, (E)-1-(4-(5-carbamoyl-2-(1-ethyl-3-methyl-1H-pyrazole-5-carboxamido)-7-methyl-1H-benzo[d]imidazol-1-yl)but-2-en-1-yl)-2-(1-ethyl-3-methyl-1H-pyrazole-5-carboxamido)-7,8-dihydro-1H-[1,4]dioxino[2′,3′:3,4]benzo[1,2-d]imidazole-5-carboxamide] | 500 to 1000 nM |
| CCn1nc(C)cc1C(=O)Nc1nc2cc(C(N)=O)cc(OCCCOC(=O)NCCC(=O)O)c2n1C/C=C/Cn1c(NC(=O)c2cc(C)nn2CC)nc2cc(C(N)=O)c3ccoc3c21 [Example 3, (E)-3-(((3-((5-carbamoyl-1-(4-(5-carbamoyl-2-(1-ethyl-3-methyl-1H-pyrazole-5-carboxamido)-1H-benzofuro[6,7-d]imidazol-1-yl)but-2-en-1-yl)-2-(1-ethyl-3-methyl-1H-pyrazole-5-carboxamido)-1H-benzo[d]imidazol-7-yl)oxy)propoxy)carbonyl)amino)propanoic acid] | < 100 nM |
